Where two headings read alike, the source gives them in different places.
Assays:
[1] = system: isolated Sprague-Dawley rats; experiment: Resident Intruder test, rat isolation rearing model; type: in vivo; settings: 0.16 or 0.48 mg/kg/day
Protocol: Sprague Dawley Rats: Right after the weaning (post natal day 21-23), 72 Sprague-Dawley male rats (Charles River, bred in the UAB Animal facility) were divided in two groups: Control (N = 18), maintained 3-4 animals per cage; Isolated (N = 54), 1 animal per cage ([…] 1291H Eurostandard type III with ECOPURE CHIPS 6 bedding material, Harlan). Animals were maintained at 21 ± 2 °C controlled temperature in a 12 hr light / dark cycle (lights on at 8:00 am) with ad libitum access to food (2014 TEKLAD, Harlan) and water. […] Control animals were treated with vehicle. The administration route was drinking water and the vehicle 1.8% 2-Hydroxypropyl-b-cyclodextrin. Drug concentration was adjusted weekly by body weight and water consumption. During the last week of treatment, all animals were tested in the EPM and, on a different day, in the RI test (N = 12 / group). After depth anesthesia with Isoflurane, animals were perfused with saline solution followed by paraformaldehyde in order to obtain brain samples for histological analysis.
The protocol was modified from previously described. Briefly, the test subject (resident) was maintained in its home cage without bedding changes for one week. […] In mice the session was video-recorded for 20 min and social interaction (social interaction and rearings) and aggressive behavior (lateral threats, clinch attacks, keep-down behavior) were analyzed. […] In rats the session was video recorded for 15 min and social interaction (active and passive social interaction, number of evitations and time without social interaction) were analyzed. […] In addition, the time spent without social interaction was also measured.
Resident Intruder (RI): Mice were video-recorded for 20 min and social interaction and aggressive behavior were analyzed. Rats were video recorded for 15 min and social interaction (active and passive social interaction, number of evitations and time without social interaction) were analyzed.

Rat pharmacokinetics = type: in vivo, Wistar rats; settings: for AUC(0-inf) / Cmax / Tmax / AUC(0-t): Wistar; for AUC(0-inf): read-out: Plasma AUCinf; for AUC(0-t): read-out: Plasma AUClast
Protocol: Blood samples were collected at 0, 0.08 (for IV only), 0.25, 0.5, 1, 2, 4, and 6 (Only for PO) 8 and 24 hr for IV and PO group and at three rats were euthanized by using excess CO2 asphyxiation, each at 0.25, 1 and 4 hr post dose and brain was collected. The study was conducted at Sai Advantium Pharma Limited, Pune, India, in accordance with the guidelines of the Institutional Animal Ethics Committee (IAEC). Prior approval was obtained before initiation of the study (IAEC Protocol No. IAEC/PRT/006-11).
Blood samples were collected from each rat at 0.5, 1, 2, 4, 6, 8, 12, and 24 hr (oral gavage) or at 2, 4, 6, 8, 12, 24, 25, 27, 30 and 48 hr (drinking water) were collected from the retro-orbital plexus into labeled tubes, containing K2EDTA solution, as an anticoagulant. Animals were euthanized by using excess CO2 asphyxiation. […] Prior approval was obtained before initiation of the study (IAEC Protocol No. FB-14-069-R-089; IAEC-CPCSEA).
Plasma was harvested from the blood samples harvested in K2EDTA containing tubes by centrifugation at 4000 rpm for 10 min at 4 ± 2 °C and stored below -70 °C until bioanalysis. Brain tissue was homogenized with phosphate buffer saline (pH 7.4). Total homogenate volume was thrice the tissue weight. All samples were processed for analysis by precipitation using Imipramine as internal standard and analyzed with partially validated LC-MS/MS method. Pharmacokinetic parameters were calculated using the non-compartmental analysis tool of WinNonlin® Enterprise software (Pharsight Corp., USA; version 5.2).
Compound levels from 3 samples per timepoint (for a given dose and route of administration), were used to calculated pharmacokinetic parameters using the non-compartmental analysis tool of WinNonlin® Enterprise software (Pharsight Corp., USA; version 5.2).

Human recombinant IL-4I1 = target: T1, Human recombinant IL-4I1 (Homo sapiens, UniProt Q96RQ9); experiment: IL4I1 inhibition assay; type: biochemical
T1 construct: purchased RD Systems 5684-AO-020
Protocol: Human recombinant IL-4I1 was purchased from RD Systems (Ref. 5684-AO-020). The biochemical activity was measured by its ability to oxidize phenylalanine (specific substrate for IL-4I1; Sigma, P2126) and liberate H2O2 was measured in a coupled horseradish peroxidase assay using Amplex Red reagent as a substrate, as described in the KDM1A assay. The IL4I1 assay buffer was 50 mM Sodium Phosphate pH 7.0. Inhibition of IL-4I1 was monitored during 30 min in the presence of KM phenylalanine peptide at the KMapp of IL-4I1.

[2] = Wistar rats, oral gavage 10 mg/kg
[3] = male, rat, plasma, po, 5.6 mg/kg/day, Wistar rats, oral drinking water 0.25mg/ml (5,6 mg/kg)
[4] = male, rat, plasma, po, 10 mg/kg, Wistar rats, oral drinking water, dose normalized to 10 mg/Kg
[5] = male, rat, plasma, po, 10 mg/kg, Wistar rats, oral gavage 10 mg/kg
[6] = male, rat, plasma, po, 10 mg/kg, Wistar rats, oral gavage 10 mg/kg (second gavage column)
[7] = male, rat, plasma, po, 10 mg/kg, Wistar rats, oral gavage 10 mg/kg (second gavage column, gavage vs drinking water study)
[8] = male, rat, plasma, Wistar rats, intravenous 2 mg/kg

T1 sequence (Q96RQ9 22-567): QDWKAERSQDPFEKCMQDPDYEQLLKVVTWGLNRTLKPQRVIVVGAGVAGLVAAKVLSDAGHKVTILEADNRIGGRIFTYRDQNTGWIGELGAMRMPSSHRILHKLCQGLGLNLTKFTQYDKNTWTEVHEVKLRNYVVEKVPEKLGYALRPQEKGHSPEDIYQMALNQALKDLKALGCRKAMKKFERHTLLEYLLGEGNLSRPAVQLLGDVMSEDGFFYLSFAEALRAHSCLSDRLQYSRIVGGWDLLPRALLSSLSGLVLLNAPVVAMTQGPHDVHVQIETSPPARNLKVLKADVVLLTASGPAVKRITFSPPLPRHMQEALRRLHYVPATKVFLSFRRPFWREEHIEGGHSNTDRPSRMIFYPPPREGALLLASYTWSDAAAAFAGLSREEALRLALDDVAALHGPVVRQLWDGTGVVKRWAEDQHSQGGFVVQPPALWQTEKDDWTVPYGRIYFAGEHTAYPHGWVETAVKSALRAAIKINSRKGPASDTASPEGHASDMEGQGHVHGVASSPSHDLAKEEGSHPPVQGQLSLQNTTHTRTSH

For `Nc1nnc(CN[C@@H]2C[C@H]2c2ccc(OCc3ccccc3)cc2)o1` [ORY-2001, vafidemstat], the “active and passive social interaction” value [1] was “had no effect on these parameters”, the number of evitations [1] was “restored to normality” and the “time without social interaction” value [1] was “dose dependently reduced”. For the same compound, the “Brain Cmax” value (Rat pharmacokinetics; [2]) was 4957 ng/g, the Fpo (Rat pharmacokinetics; [2]) was 95% and the “time for brain compound levels to return to baseline” value (Rat pharmacokinetics; brain pharmacokinetics (S2A Table)) was “less than 1 days”. The AUC(0-inf) (Rat pharmacokinetics; male, rat, plasma, iv, 2 mg/kg, Wistar rats, intravenous 2 mg/kg) was 3910 ng·h/mL, the Cmax (Rat pharmacokinetics; [3]) was 945 ng/mL and the Tmax (Rat pharmacokinetics; [3]) was 8.67 h. For the same compound, the AUC(0-t) (Rat pharmacokinetics; male, rat, plasma, po, 5.6 mg/kg/day, Wistar rats, oral drinking water 0.25mg/ml (5,6 mg/kg), ad libitum 24 hr) was 12000 ng·h/mL, the AUC(0-inf) (Rat pharmacokinetics; [3]) was 12100 ng·h/mL and the Cmax (Rat pharmacokinetics; [4]) was 1690 ng/mL. For the same compound, the Tmax (Rat pharmacokinetics; [4]) was 8.67 h, the AUC(0-t) (Rat pharmacokinetics; male, rat, plasma, po, 10 mg/kg, Wistar rats, oral drinking water, dose normalized to 10 mg/Kg considering a linear behavior) was 21500 ng·h/mL and the AUC(0-inf) (Rat pharmacokinetics; [4]) was 21700 ng·h/mL. The Cmax (Rat pharmacokinetics; [5]) was 3400 ng/mL, the Tmax (Rat pharmacokinetics; [5]) was 0.833 h and the Cmax (Rat pharmacokinetics; [6]) was 5970 ng/mL. The Tmax (Rat pharmacokinetics; [6]) was 2 h, the AUC(0-inf) (Rat pharmacokinetics; [7]) was 35600 ng·h/mL and the AUC(0-t) (Rat pharmacokinetics; [7]) was 32900 ng·h/mL. It also gave an AUC(0-inf) (Rat pharmacokinetics; [5]) of 21000 ng·h/mL, an AUC (Rat pharmacokinetics; male, rat, plasma, po, Wistar rats, p.o. 10 mg/kg, read-out: area-under-the-curve (AUC) (converted)) of 21000 ng·h/mL and a clearance (Rat pharmacokinetics; [8]) of 8.5 mL/min/kg. It also gave a half-life (Rat pharmacokinetics; [8]) of 1.87 h, a Vd (Rat pharmacokinetics; male, rat, plasma, Wistar rats, intravenous 2 mg/kg, read-out: Vss) of 1.2 L/kg and a half-life (Rat pharmacokinetics; male, rat, plasma, Wistar rats, oral gavage 10 mg/kg) of 3.28 h. For the same compound, the inhibition at 10 µM (Human recombinant IL-4I1) was 29%.
